For 14 compounds, IC50 results are on record in US9458153B2, “Dihydroquinolizinones for the treatment and prophylaxis of hepatitis B virus infection” (Hoffmann-La Roche Inc., priority 2014, dated 2016).

The term IC50 denotes the concentration at which inhibition is half-maximal. Low values mean inhibition by little substance, high ones a need for much substance.

The structures appear in SMILES notation. Counter-ions that a name gives are not always drawn.

One assay concerns HBsAg. The assay is described as follows: HBsAg assay (chemiluminescence immunoassay of secreted HBsAg in HepG2.2.15 culture supernatant). The note with it: HBsAg secretion reduced by 50% vs no drug control; HepG2.2.15 cells; CLIA kit. The assay is classed as cell-based, HBV. The procedure:
HepG2.2.15 cells (Acs et al. Proc Natl Acad Sci USA, 84, (1987), 4641-4), a constitutively HBV-expressing cell line were cultured in DMEM+Glutamax-I medium (Invitrogen, Carlsbad, Calif., USA), supplemented with 10% fetal bovine serum (Invitrogen) and G418 (Invitrogen) at a final concentration of 200 mg/L and maintained in 5% CO2 at 37° C.
HepG2.2.15 cells were seeded in duplicate into white, 96-well plates at 1.5×10^4 cells/well. The cells were treated with a three-fold serial dilution series of the compounds in DMSO. The final DMSO concentration in all wells was 1% and DMSO was used as no drug control.
The HBsAg chemiluminescence immunoassay (CLIA) kit (Autobio Diagnostics Co., Zhengzhou, China, Catalog number: CL0310-2) was used to measure the levels of secreted HBV antigens semi-quantitatively. For the detection 50 μL/well culture supernatant was used and HBsAg was quantified using HBsAg chemiluminescence immunoassay (CLIA) kit (Autobio Diagnostics Co., Zhengzhou, China, Catalog number: CL0310-2), 50 μL of the supernatant was transferred to the CLIA assay plate and 50 μL of enzyme conjugate reagent was added into each well. The plates were sealed and gently agitated for 1 hour at room temperature. The supernatant-enzyme-mixture was discarded and wells were washed 6 times with 300 μL of PBS. The residual liquid was removed by plating the CLIA plate right side down on absorbent tissue paper. 25 μL of substrates A and B were added to each well. Luminance was measured using a luminometer (Mithras LB 940 Multimode Microplate Reader) after 10 minutes incubation. Dose-response curves were generated and the IC50 value was extrapolated by using the E-WorkBook Suite (ID Business Solutions Ltd., Guildford, UK).
The compounds of the present invention were tested for their capacity to inhibit HBsAg as described herein.
`CCC1Cc2cc(OCC(F)F)c(OC)cc2-c2cc(=O)c(C(=O)O)cn21` (centres unmarked) [Example 45, 9-(2,2-difluoroethoxy)-6-ethyl-10-methoxy-2-oxo-6,7-dihydrobenzo[a]quinolizine-3-carboxylic acid] came in with an IC50 of 104 nM.

Take `CCOc1cc2c(cc1OC)-c1cc(=O)c(C(=O)O)cn1C(CC)C2` (single isomer, unassigned; (+)) [Example 37, (+)-9-ethoxy-6-ethyl-10-methoxy-2-oxo-6,7-dihydrobenzo[a]quinolizine-3-carboxylic acid]: the IC50 turned out to be 8 nM.

`COc1cc2c(cc1OC)-c1cc(=O)c(C(=O)O)cn1C(CC(C)C)C2` (centres unmarked) [Example 101, 6-isobutyl-9,10-dimethoxy-2-oxo-6,7-dihydrobenzo[a]quinolizine-3-carboxylic acid] came in with an IC50 of 45 nM.

Consider `CCC1Cc2cc(OCc3ccccc3)c(OC)cc2-c2cc(=O)c(C(=O)O)cn21` (centres unmarked) [Example 8, 9-benzyloxy-6-ethyl-10-methoxy-2-oxo-6,7-dihydrobenzo[a]quinolizine-3-carboxylic acid], for which the IC50 was found to be 150 nM. Compared with the last compound, the IC50 is about 3.3-fold higher.

On to `CCOc1cc2c(cc1Cl)-c1cc(=O)c(C(=O)O)cn1C(CC)C2` (single isomer, unassigned; (+)) [Example 118, (+)-10-chloro-9-ethoxy-6-ethyl-2-oxo-6,7-dihydrobenzo[a]quinolizine-3-carboxylic acid], for which half-maximal inhibition (IC50) was put at 4 nM. This IC50 is about 38-fold lower than that of the compound before.

For `COc1cc2c(cc1OCC(C)(C)CO)CC(C(C)C)n1cc(C(=O)O)c(=O)cc1-2` (single isomer, unassigned; (+)) [Example 145, (+)-9-(3-hydroxy-2,2-dimethyl-propoxy)-6-isopropyl-10-methoxy-2-oxo-6,7-dihydrobenzo[a]quinolizine-3-carboxylic acid], the IC50 amounted to 6 nM.

`COCCCOc1cc2c(c(F)c1F)-c1cc(=O)c(C(=O)O)cn1C(C(C)C)C2` (centres unmarked) [Example 213, 10,11-difluoro-6-isopropyl-9-(3-methoxypropoxy)-2-oxo-6,7-dihydrobenzo[a]quinolizine-3-carboxylic acid]: the IC50 turned out to be 24 nM.

The same assay, now with this note: HBsAg secretion reduced by 50% vs no drug control; HepG2.2.15 cells; CLIA kit; hydrochloride.
The compound `COc1cc2c(cc1OCCCCCN)CC(C(C)(C)C)n1cc(C(=O)O)c(=O)cc1-2` (single isomer, unassigned; (+)) [Example 173, (+)-9-(5-aminopentoxy)-6-tert-butyl-10-methoxy-2-oxo-6,7-dihydrobenzo[a]quinolizine-3-carboxylic acid hydrochloride] registered an IC50 of 21 nM.

Staying with this assay, now noted: Hepatitis B virus, HepG2.2.15, HBsAg secretion reduced by 50% vs no drug control; HepG2.2.15 cells; CLIA kit.
The compound `COc1cc2c(cc1OCCCCCNS(C)(=O)=O)CC(C(C)(C)C)n1cc(C(=O)O)c(=O)cc1-2` (centres unmarked) [Example 176, 6-tert-butyl-9-[5-(methanesulfonamido)pentoxy]-10-methoxy-2-oxo-6,7-dihydrobenzo[a]quinolizine-3-carboxylic acid] returned an IC50 of 3 nM.

Compound `CCC1Cc2cc(OCCO)c(OC)cc2-c2cc(=O)c(C(=O)O)cn21` (centres unmarked) [Example 21, 6-ethyl-9-(2-hydroxyethoxy)-10-methoxy-2-oxo-6,7-dihydrobenzo[a]quinolizine-3-carboxylic acid] registered an IC50 of 450 nM.

For the compound `CCC1Cc2cc(OCCN3CCOCC3)c(OC)cc2-c2cc(=O)c(C(=O)O)cn21` (centres unmarked) [Example 20, 6-ethyl-10-methoxy-9-(2-morpholinoethoxy)-2-oxo-6,7-dihydrobenzo[a]quinolizine-3-carboxylic acid], the IC50 was found to be 220 nM.

Turning to `CCC1Cc2cc(OCCCC#N)c(OC)cc2-c2cc(=O)c(C(=O)O)cn21` (centres unmarked) [Example 52, 9-(3-cyanopropoxy)-6-ethyl-10-methoxy-2-oxo-6,7-dihydrobenzo[a]quinolizine-3-carboxylic acid], the IC50 is 170 nM.

`CCC1Cc2cc(C#N)c(OC)cc2-c2cc(=O)c(C(=O)O)cn21` (centres unmarked) [Example 93, 9-cyano-6-ethyl-10-methoxy-2-oxo-6,7-dihydrobenzo[a]quinolizine-3-carboxylic acid] registered an IC50 of 190 nM.

`CC[C@H]1Cc2cc(OC)c(OC)cc2-c2cc(=O)c(C(=O)O)cn21` [Example 72, (6S)-(−)-6-ethyl-9,10-dimethoxy-2-oxo-6,7-dihydrobenzo[a]quinolizine-3-carboxylic acid] came in with an IC50 of 12000 nM.
